Measurements: ChEMBL document CHEMBL1121503, “Estrogen receptor based imaging agents. 2. Synthesis and receptor binding affinity of side-chain halogenated hexestrol derivatives” (J Med Chem, 1980)

Molecular target: Estrogen receptor (Ovis aries) (UniProt P49885+Q9TU15)

RAC | Compound
21 | Oc1ccc(C(=C(C(F)(F)F)C(F)(F)F)c2ccccc2)cc1
48 | Oc1ccc(/C(=C(/c2ccc(O)cc2)C(F)(F)F)C(F)(F)F)cc1
10 | Oc1ccc(/C(=C(/c2ccccc2)C(F)(F)F)C(F)(F)F)cc1
129 | CCC(c1ccc(O)cc1)C(CCF)c1ccc(O)cc1 (stereo not given)
71 | CCC(c1ccc(O)cc1)C(CCBr)c1ccc(O)cc1 (stereo not given)
60 | CCC(c1ccc(O)cc1)C(CCI)c1ccc(O)cc1 (stereo not given)
20 | C/C(=C(/C)c1ccc(O)cc1)c1ccc(O)cc1
113 | CCC(c1ccc(O)cc1)C(CCCl)c1ccc(O)cc1 (stereo not given)
300 | CC[C@H](c1ccc(O)cc1)[C@@H](CC)c1ccc(O)cc1
32 | Oc1ccc(C(=C2CCCCC2)c2ccc(O)cc2)cc1
